# PubChem BioAssay AID1259407 (Chemical Carcinogenesis Research Information System (CCRIS), 2018)
# The source made the active and inactive calls. How the calls were made is not given here.
# Test system: CCRIS mutagenicity, Ames/micronucleus/aberration tests
# Assay: CCRIS mutagenicity studies
# [1] = Test System: AMES SALMONELLA TYPHIMURIUM, Strain/Indicator: TA97, Metabolic Activation: NONE, Method: STANDARD PLATE
# [2] = Test System: AMES SALMONELLA TYPHIMURIUM, Strain/Indicator: TA97, Metabolic Activation: RAT, LIVER, S-9, AROCLOR 1254, Method: STANDARD PLATE
# [3] = Test System: AMES SALMONELLA TYPHIMURIUM, Strain/Indicator: TA98, Metabolic Activation: NONE, Method: STANDARD PLATE
# [4] = Test System: AMES SALMONELLA TYPHIMURIUM, Strain/Indicator: TA98, Metabolic Activation: RAT, LIVER, S-9, AROCLOR 1254, Method: STANDARD PLATE
# [5] = Test System: AMES SALMONELLA TYPHIMURIUM, Strain/Indicator: TA100, Metabolic Activation: NONE, Method: STANDARD PLATE
# [6] = Test System: AMES SALMONELLA TYPHIMURIUM, Strain/Indicator: TA100, Metabolic Activation: RAT, LIVER, S-9, AROCLOR 1254, Method: STANDARD PLATE
# [7] = Test System: AMES SALMONELLA TYPHIMURIUM, Strain/Indicator: TA98, Metabolic Activation: NONE, Method: PREINCUBATION
# [8] = Test System: AMES SALMONELLA TYPHIMURIUM, Strain/Indicator: TA100, Metabolic Activation: NONE, Method: PREINCUBATION
smiles,measurement,setting,value
Clc1ccccn1,mutagenic call,[1],inactive; negative
same,mutagenic call,[2],active; positive
same,mutagenic call,[3],inactive; negative
same,mutagenic call,[4],active; positive
same,mutagenic call,[5],inactive; negative
same,mutagenic call,[6],active; positive
same,mutagenic call,"Test System: AMES SALMONELLA TYPHIMURIUM, Strain/Indicator: TA102, Metabolic Activation: NONE, Method: STANDARD PLATE",inactive; negative
same,mutagenic call,"Test System: AMES SALMONELLA TYPHIMURIUM, Strain/Indicator: TA102, Metabolic Activation: RAT, LIVER, S-9, AROCLOR 1254, Method: STANDARD PLATE",active; positive
same,mutagenic call,"Test System: MOUSE LYMPHOMA, Strain/Indicator: L5178Y (TK+/TK-), Metabolic Activation: NONE",active; positive
same,mutagenic call,"Test System: MOUSE LYMPHOMA, Strain/Indicator: L5178Y (TK+/TK-), Metabolic Activation: RAT, LIVER, S-9, AROCLOR 1254",active; positive
Cc1c2ccccc2cc2c3c(ccc12)C(O)C(O)[C@@H]1O[C@@H]31 (stereo not given in full),mutagenic call,[7],active; positive
same,mutagenic call,[8],active; positive
same,mutagenic call,"Test System: CHINESE HAMSTER V-79, Strain/Indicator: V-79/6-THIOGUANINE, Metabolic Activation: NONE",active; positive
CC(=O)CC(O)(CC(=O)O)C(=O)O (stereo not given),mutagenic call,"Test System: AMES SALMONELLA TYPHIMURIUM, Strain/Indicator: TA97, Metabolic Activation: NONE, Method: PREINCUBATION",inactive; negative
same,mutagenic call,"Test System: AMES SALMONELLA TYPHIMURIUM, Strain/Indicator: TA97, Metabolic Activation: S-9, Method: PREINCUBATION",inactive; negative
same,mutagenic call,"Test System: AMES SALMONELLA TYPHIMURIUM, Strain/Indicator: TA102, Metabolic Activation: NONE, Method: PREINCUBATION",inactive; negative
same,mutagenic call,"Test System: AMES SALMONELLA TYPHIMURIUM, Strain/Indicator: TA102, Metabolic Activation: S-9, Method: PREINCUBATION",inactive; negative
O=[N+]([O-])c1cccc2c1ccc1ccccc12,mutagenic call,"Test System: AMES SALMONELLA TYPHIMURIUM, Strain/Indicator: TA98(1,8-DNP6), Metabolic Activation: NONE, Method: STANDARD PLATE",active; positive
same,mutagenic call,"Test System: AMES SALMONELLA TYPHIMURIUM, Strain/Indicator: TA98(NR), Metabolic Activation: NONE, Method: STANDARD PLATE",active; positive
same,mutagenic call,[3],active; positive
same,mutagenic call,[5],active; positive
same,mutagenic call,"Test System: AMES SALMONELLA TYPHIMURIUM, Strain/Indicator: YG1021, Metabolic Activation: NONE, Method: STANDARD PLATE",active; positive
same,mutagenic call,"Test System: AMES SALMONELLA TYPHIMURIUM, Strain/Indicator: YG1024, Metabolic Activation: NONE, Method: STANDARD PLATE",active; positive
same,mutagenic call,"Test System: AMES SALMONELLA TYPHIMURIUM, Strain/Indicator: YG1026, Metabolic Activation: NONE, Method: STANDARD PLATE",active; positive
same,mutagenic call,"Test System: AMES SALMONELLA TYPHIMURIUM, Strain/Indicator: YG1029, Metabolic Activation: NONE, Method: STANDARD PLATE",active; positive
C=CCc1ccccc1N.[Cl-].[Cl-].[Pd+2],mutagenic call,"Test System: AMES SALMONELLA TYPHIMURIUM, Strain/Indicator: TA92, Metabolic Activation: NONE, Method: STANDARD PLATE",inactive; negative
same,mutagenic call,[3],inactive; negative
same,mutagenic call,[5],active; positive
same,mutagenic call,"Test System: AMES SALMONELLA TYPHIMURIUM, Strain/Indicator: TA2410, Metabolic Activation: NONE, Method: STANDARD PLATE",active; positive
O=[N+]([O-])c1ccc2ccc3cccc4cc(O)c1c2c34,mutagenic call,[3],active; positive
same,mutagenic call,[4],active; positive
FC(F)(Cl)Br,mutagenic call,"Test System: AMES SALMONELLA TYPHIMURIUM, Strain/Indicator: TA98, Metabolic Activation: NONE, Method: DESICCATOR",inactive; negative
same,mutagenic call,"Test System: AMES SALMONELLA TYPHIMURIUM, Strain/Indicator: TA100, Metabolic Activation: NONE, Method: DESICCATOR",inactive; negative
same,mutagenic call,"Test System: AMES SALMONELLA TYPHIMURIUM, Strain/Indicator: TA100, Metabolic Activation: RAT, LIVER, S-9, AROCLOR 1254, Method: DESICCATOR",inactive; negative
same,mutagenic call,"Test System: AMES SALMONELLA TYPHIMURIUM, Strain/Indicator: TA1535, Metabolic Activation: NONE, Method: DESICCATOR",active; positive
same,mutagenic call,"Test System: AMES SALMONELLA TYPHIMURIUM, Strain/Indicator: TA1535, Metabolic Activation: RAT, LIVER, S-9, AROCLOR 1254, Method: DESICCATOR",active; positive
same,mutagenic call,"Test System: AMES SALMONELLA TYPHIMURIUM, Strain/Indicator: TA1538, Metabolic Activation: RAT, LIVER, S-9, AROCLOR 1254, Method: DESICCATOR",inactive; negative
same,mutagenic call,"Test System: MOUSE LYMPHOMA, Strain/Indicator: L5178Y (TK+/TK-), Metabolic Activation: NONE, Method: DESICCATOR",inactive; negative
same,mutagenic call,"Test System: MOUSE LYMPHOMA, Strain/Indicator: L5178Y (TK+/TK-), Metabolic Activation: S-9, Method: DESICCATOR",inactive; negative
Nc1ncnc2c1ncn2Cc1ccccc1,mutagenic call,[1],inactive; negative
same,mutagenic call,[2],inactive; negative
same,mutagenic call,[3],inactive; negative
same,mutagenic call,[4],active; positive
same,mutagenic call,[5],inactive; negative
same,mutagenic call,[6],inactive; negative
Oc1ccc2ccccc2c1N=Nc1ccc(N=Nc2ccccc2)cc1,mutagenic call,[3],inactive; negative
same,mutagenic call,[5],inactive; negative
O=NN(CCc1c[nH]c2ccccc12)C1OC[C@@H](O)[C@H](O)[C@H]1O (stereo not given in full),mutagenic call,"Test System: AMES SALMONELLA TYPHIMURIUM, Strain/Indicator: TA100, Metabolic Activation: NONE, Method: LIQUID INCUBATION",active; positive
O=[N+]([O-])c1nc2ccccc2[nH]1,mutagenic call,[3],active; positive
O[C@H]1[C@@H]2O[C@@H]2c2c(ccc3cc4c(ccc5ccccc54)nc23)[C@@H]1O,mutagenic call,[7],active; positive
same,mutagenic call,"Test System: AMES SALMONELLA TYPHIMURIUM, Strain/Indicator: TA98, Metabolic Activation: RAT, LIVER, AROCLOR 1254, NADPH GENERATING SYSTEM, Method: STANDARD PLATE",active; positive
same,mutagenic call,[8],active; positive
same,mutagenic call,"Test System: AMES SALMONELLA TYPHIMURIUM, Strain/Indicator: TA100, Metabolic Activation: RAT, LIVER, AROCLOR 1254, NADPH GENERATING SYSTEM, Method: STANDARD PLATE",active; positive
same,mutagenic call,"Test System: CHINESE HAMSTER V-79, Strain/Indicator: V-79/8-AZAGUANINE, Metabolic Activation: NONE",active; positive
same,mutagenic call,"Test System: CHINESE HAMSTER V-79, Strain/Indicator: V-79/8-AZAGUANINE, Method: STANDARD PLATE",active; positive
